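GI50: concentration for 50% inhibition of growth. TGI denotes the concentration required for complete inhibition of growth.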
How the values were obtained:
Assay in all cases: DTP human tumour cell line panel, 384-well format
[1] = tested on: HOP-62 NSCLC
[2] = tested on: SNB-19 CNS
[3] = tested on: NCI-H23 lung
[4] = tested on: DU-145 prostate
[5] = tested on: A549 NSCLC
[6] = tested on: NCI-H522 lung
[7] = tested on: SW-620 colon
[8] = tested on: HT29 colon
[9] = tested on: OVCAR-4 ovarian
[10] = tested on: ACHN renal
[11] = tested on: 786-0 renal
[12] = tested on: COLO 205 colon
[13] = tested on: MALME-3M melanoma
[14] = tested on: SK-OV-3 ovarian
[15] = tested on: NCI-H226 lung
[16] = tested on: MOLT-4 leukemia
[17] = tested on: EKVX NSCLC
[18] = tested on: RXF 393 renal
[19] = tested on: UACC-257 melanoma
[20] = tested on: OVCAR-8 ovarian
[21] = tested on: MDA-MB-435 melanoma
[22] = tested on: A498 renal
[23] = tested on: MDA-MB-231 breast
[24] = tested on: SF-268 CNS
[25] = tested on: CAKI-1 renal
[26] = tested on: TK-10 renal
[27] = tested on: SK-MEL-5 melanoma
[28] = tested on: MCF7 breast
[29] = tested on: HL-60(TB) leukemia
[30] = tested on: OVCAR-5 ovarian
[31] = tested on: T-47D breast
[32] = tested on: U251 glioblastoma
[33] = tested on: MDA-MB-468 breast
[34] = tested on: PC-3 prostate
[35] = tested on: NCI-H322M lung
[36] = tested on: HCT-15 colon
[37] = tested on: SF-295 CNS
[38] = tested on: BT-549 breast
[39] = tested on: SR leukemia
[40] = tested on: NCI-H460 NSCLC
[41] = tested on: M14 melanoma
[42] = tested on: SK-MEL-2 melanoma
[43] = tested on: HOP-92 NSCLC
[44] = tested on: IGROV1 ovarian
[45] = tested on: KM12 colon
[46] = tested on: RPMI-8226 leukemia
[47] = tested on: UACC-62 melanoma
[48] = tested on: SK-MEL-28 melanoma
[49] = tested on: NCI/ADR-RES ovarian
[50] = tested on: HS 578T breast
[51] = tested on: SN12C renal
[52] = tested on: SNB-75 CNS
[53] = tested on: HCC-2998 colon
[54] = tested on: SF-539 CNS
[55] = tested on: OVCAR-3 ovarian
[56] = tested on: UO-31 renal
[57] = tested on: HCT-116 colon
[58] = tested on: K-562 leukemia

## CC(C)n1nc(-c2cc3cc(O)ccc3[nH]2)c2c(N)ncnc21
[1]
  GI50: 0.395 µM
  TGI: 1.95 µM
[2]
  GI50: 2.87 µM
  TGI: 12.1 µM
[3]
  GI50: 0.952 µM
  TGI: 3.22 µM
[4]
  GI50: 1.34 µM
  TGI: 11 µM
[5]
  GI50: 0.415 µM
  TGI: 2.37 µM
[6]
  GI50: 0.104 µM
  TGI: 0.701 µM
[7]
  GI50: 4.2 µM
  TGI: 14.6 µM
[8]
  GI50: 1.18 µM
  TGI: 8.43 µM
[9]
  GI50: 0.631 µM
  TGI: 2.82 µM
[10]
  GI50: 0.77 µM
  TGI: 2.64 µM
[11]
  GI50: 1.23 µM
  TGI: 3.94 µM
[12]
  GI50: 0.348 µM
  TGI: 1.18 µM
[13]
  GI50: 0.0416 µM
  TGI: 0.271 µM
[14]
  GI50: 0.208 µM
  TGI: 0.652 µM
[15]
  GI50: 0.374 µM
  TGI: 1.29 µM
[16]
  GI50: 0.329 µM
  TGI: 1.62 µM
[17]
  GI50: 0.546 µM
  TGI: 3.05 µM
[18]
  GI50: 0.372 µM
  TGI: 1.61 µM
[19]
  GI50: 1.14 µM
  TGI: 5.39 µM
[20]
  GI50: 0.988 µM
  TGI: 5.5 µM
[21]
  GI50: 0.714 µM
  TGI: 3.3 µM
[22]
  GI50: 0.119 µM
  TGI: 0.764 µM
[23]
  GI50: 0.338 µM
  TGI: 3.41 µM
[24]
  GI50: 1.84 µM
  TGI: 5.93 µM
[25]
  GI50: 0.328 µM
  TGI: 1.81 µM
[26]
  GI50: 0.327 µM
  TGI: 1.81 µM
[27]
  GI50: 0.246 µM
  TGI: 1.06 µM
[28]
  GI50: 0.229 µM
  TGI: 7.96 µM
[29]
  GI50: 1.76 µM
  TGI: 3.99 µM
[30]
  GI50: 0.421 µM
  TGI: 3.58 µM
[31]
  GI50: 0.107 µM
  TGI: 0.48 µM
[32]
  GI50: 1.89 µM
  TGI: 6.01 µM
[33]
  GI50: 0.201 µM
  TGI: 0.79 µM
[34]
  GI50: 0.241 µM
  TGI: 1.25 µM
[35]
  GI50: 0.391 µM
  TGI: 3.2 µM
[36]
  GI50: 0.605 µM
  TGI: 11.9 µM
[37]
  GI50: 1.01 µM
  TGI: 3.8 µM
[38]
  GI50: 0.6 µM
  TGI: 2.31 µM
[39]
  GI50: 0.285 µM
  TGI: 0.768 µM
[40]
  GI50: 0.147 µM
  TGI: 1.4 µM
[41]
  GI50: 0.354 µM
  TGI: 2.01 µM
[42]
  GI50: 0.718 µM
  TGI: 1.8 µM
[43]
  GI50: 0.345 µM
  TGI: 1.62 µM
[44]
  GI50: 0.205 µM
  TGI: 0.642 µM
[45]
  GI50: 0.448 µM
  TGI: 6.43 µM
[46]
  GI50: 0.0916 µM
  TGI: 0.236 µM
[47]
  GI50: 0.507 µM
  TGI: 2.08 µM
[48]
  GI50: 0.315 µM
  TGI: 1.02 µM
[49]
  GI50: 0.511 µM
  TGI: 2.2 µM
[50]
  GI50: 0.221 µM
  TGI: 0.808 µM
[51]
  GI50: 0.382 µM
  TGI: 4.19 µM
[52]
  GI50: 0.265 µM
  TGI: 1.56 µM
[53]
  GI50: 1.38 µM
  TGI: 10.5 µM
[54]
  GI50: 1.03 µM
  TGI: 2.94 µM
[55]
  GI50: 0.514 µM
  TGI: 4.94 µM

## CCOC(=O)[C@@H](N)CCC(=O)N[C@@H](CSCc1ccccc1)C(=O)N[C@@H](C(=O)OCC)c1ccccc1
[1]
  GI50: 9.1 µM
  TGI: 24 µM
[2]
  GI50: 15.7 µM
  TGI: 30.3 µM
[3]
  GI50: 16.2 µM
  TGI: 32.5 µM
[4]
  GI50: 19.2 µM
  TGI: 45.3 µM
[5]
  GI50: 25.3 µM
  TGI: > 100 µM
[6]
  GI50: 14.4 µM
  TGI: 27.6 µM
[7]
  GI50: 9.33 µM
  TGI: 21.4 µM
[8]
  GI50: 8.24 µM
  TGI: 20.7 µM
[9]
  GI50: 16 µM
  TGI: 31.4 µM
[10]
  GI50: 8.55 µM
  TGI: 20.9 µM
[11]
  GI50: 12.3 µM
  TGI: 24.8 µM
[12]
  GI50: 11.5 µM
  TGI: 23.8 µM
[13]
  GI50: 16.4 µM
  TGI: 30.1 µM
[14]
  GI50: 13.9 µM
  TGI: 26.9 µM
[56]
  GI50: 38.6 µM
  TGI: > 100 µM
[15]
  GI50: 11.8 µM
  TGI: 25.6 µM
[16]
  GI50: 2.01 µM
  TGI: 3.57 µM
[17]
  GI50: 20.4 µM
  TGI: 43.6 µM
[18]
  GI50: 10.8 µM
  TGI: 22.7 µM
[19]
  GI50: 16.9 µM
  TGI: 30.6 µM
[20]
  GI50: 10.8 µM
  TGI: 22.8 µM
[21]
  GI50: 17.3 µM
  TGI: 31.2 µM
[22]
  GI50: 11.6 µM
  TGI: 24.1 µM
[23]
  GI50: 11.9 µM
  TGI: 24.2 µM
[24]
  GI50: 10.5 µM
  TGI: 22.4 µM
[25]
  GI50: 8.03 µM
  TGI: 20.4 µM
[26]
  GI50: 14.5 µM
  TGI: 27.9 µM
[27]
  GI50: 15.3 µM
  TGI: 29 µM
[28]
  GI50: 5.51 µM
  TGI: 19 µM
[29]
  GI50: 18.5 µM
  TGI: 32.6 µM
[57]
  GI50: 5.21 µM
  TGI: 17 µM
[30]
  GI50: 32.3 µM
  TGI: > 100 µM
[31]
  GI50: 15.5 µM
  TGI: 29 µM
[32]
  GI50: 11.2 µM
  TGI: 23.5 µM
[33]
  GI50: 5.45 µM
  TGI: 17.2 µM
[34]
  GI50: 14.8 µM
  TGI: 28.1 µM
[35]
  GI50: 18.1 µM
  TGI: 60 µM
[36]
  GI50: 20.1 µM
  TGI: 40.8 µM
[37]
  GI50: 13.1 µM
  TGI: 26.1 µM
[38]
  GI50: 17.5 µM
  TGI: 31.3 µM
[39]
  GI50: 1.82 µM
  TGI: 3.43 µM
[40]
  GI50: 7.59 µM
  TGI: 20.1 µM
[41]
  GI50: 16.8 µM
  TGI: 30.4 µM
[42]
  GI50: 15.5 µM
  TGI: 29 µM
[43]
  GI50: 10.4 µM
  TGI: 22.2 µM
[44]
  GI50: 13 µM
  TGI: 25.9 µM
[45]
  GI50: 6.17 µM
  TGI: 18.5 µM
[47]
  GI50: 10.5 µM
  TGI: 22.4 µM
[58]
  GI50: 10.6 µM
  TGI: 22.7 µM
[48]
  GI50: 16.5 µM
  TGI: 30.1 µM
[50]
  GI50: 15.3 µM
  TGI: 28.6 µM
[51]
  GI50: 15 µM
  TGI: 28.3 µM
[52]
  GI50: 12.2 µM
  TGI: 24.7 µM
[54]
  GI50: 12.5 µM
  TGI: 25.1 µM
[55]
  GI50: 13.5 µM
  TGI: 26.4 µM

— PubChem BioAssay (NCI)
